In brackets after ≈: the same amount, converted by molar mass. Activity calls are given as the source filed them. The calls are words filed in the database; no cut-off is given here.
Tests used:
[1] = test system: Staphylococcus aureus; experiment: Antibacterial activity against methicillin-resistant Staphylococcus aureus CGMCC 1.12409 assessed as reduction in bacterial growth; type: functional
[2] = test system: Staphylococcus aureus; experiment: Antibacterial activity against Staphylococcus aureus CGMCC1.8721 assessed as reduction in bacterial growth; type: functional
[3] = test system: Staphylococcus aureus; experiment: Antibacterial activity against methicillin-resistant Staphylococcus aureus ATCC 43300 assessed as reduction in bacterial growth; type: functional
[4] = test system: Staphylococcus aureus; experiment: Antibacterial activity against methicillin-resistant Staphylococcus aureus ATCC 33591 assessed as reduction in bacterial growth; type: functional
[5] = test system: Staphylococcus aureus; experiment: Bactericidal activity against Staphylococcus aureus CGMCC1.8721 assessed as reduction in bacterial growth; type: functional
[6] = test system: Staphylococcus aureus; experiment: Bactericidal activity against methicillin-resistant Staphylococcus aureus ATCC 43300 assessed as reduction in bacterial growth; type: functional
[7] = test system: Staphylococcus aureus; experiment: Bactericidal activity against methicillin-resistant Staphylococcus aureus ATCC 33591 assessed as reduction in bacterial growth; type: functional
[8] = test system: Staphylococcus aureus; experiment: Bactericidal activity against methicillin-resistant Staphylococcus aureus CGMCC 1.12409 assessed as reduction in bacterial growth; type: functional
[9] = test system: Staphylococcus aureus; experiment: Antibacterial activity against Staphylococcus aureus CGMCC1.8721 assessed as reduction in bacterial growth in presence of phosphatidylglycerol; type: functional
[10] = test system: Staphylococcus aureus; experiment: Antibacterial activity against Methicillin-resistant Staphylococcus aureus CGMCC1.8721 infected in mouse skin infection model assessed as reduction in bacterial load at 5 mg/kg, sc; type: functional; parameters: scale not given: the % may be the effect or the level left
[11] = test system: Staphylococcus aureus; experiment: Antibacterial activity against Methicillin-resistant Staphylococcus aureus CGMCC1.8721 infected in mouse skin infection model assessed as reduction in bacterial clones at 5 mg/kg, sc; type: functional, organism-based

SMILES	MIC [1]	MIC [2]	MIC [3]	MIC [4]	other results
C[C@H](Cc1c[nH]c2ccc(CN3CC(O)C3)cc12)[C@H]1CC[C@H]2[C@@H]3CC[C@@H]4C[C@H](O)CC[C@]4(C)[C@H]3CC[C@]12C	16 µg/mL (≈ 30.8 µM)	8 µg/mL (≈ 15.4 µM)	8 µg/mL (≈ 15.4 µM)	16 µg/mL (≈ 30.8 µM)	–
CCNCc1ccc2[nH]cc([C@H]3CC[C@H]4[C@@H]5CCc6cc(O)ccc6[C@H]5CC[C@]34C)c2c1	4 µg/mL (≈ 9.33 µM)	1 µg/mL (≈ 2.33 µM)	1 µg/mL (≈ 2.33 µM)	4 µg/mL (≈ 9.33 µM)	MBC [5]: 2 µg/mL (≈ 4.67 µM); MBC [6]: 2 µg/mL (≈ 4.67 µM); MBC [7]: 8 µg/mL (≈ 18.7 µM); MBC [8]: 8 µg/mL (≈ 18.7 µM)
C[C@H](Cc1c[nH]c2ccc(CN3CCC(N4CCCC4)CC3)cc12)[C@H]1CC[C@H]2[C@@H]3CC[C@@H]4C[C@H](O)CC[C@]4(C)[C@H]3CC[C@]12C	–	16 µg/mL (≈ 26.7 µM)	16 µg/mL (≈ 26.7 µM)	–	–
C[C@H](Cc1c[nH]c2ccc(CNCCCl)cc12)[C@H]1CC[C@H]2[C@@H]3CC[C@@H]4C[C@H](O)CC[C@]4(C)[C@H]3CC[C@]12C	–	32 µg/mL (≈ 60.9 µM)	–	–	–
C[C@H](Cc1c[nH]c2ccc(CN3CCOCC3)cc12)[C@H]1CC[C@H]2[C@@H]3CC[C@@H]4C[C@H](O)CC[C@]4(C)[C@H]3CC[C@]12C	–	16 µg/mL (≈ 30 µM)	32 µg/mL (≈ 60.1 µM)	–	–
COc1ccc2[nH]cc(C[C@@H](C)[C@H]3CC[C@H]4[C@@H]5CC[C@@H]6C[C@H](O)CC[C@]6(C)[C@H]5CC[C@]34C)c2c1	32 µg/mL (≈ 69 µM)	16 µg/mL (≈ 34.5 µM)	32 µg/mL (≈ 69 µM)	32 µg/mL (≈ 69 µM)	–
O=C(N[C@H](CO)[C@H](O)c1ccc([N+](=O)[O-])cc1)C(Cl)Cl	–	–	–	–	Activity [9]: inactive
C[C@H](Cc1c[nH]c2ccc(CO)cc12)[C@H]1CC[C@H]2[C@@H]3CC[C@@H]4C[C@H](O)CC[C@]4(C)[C@H]3CC[C@]12C	32 µg/mL (≈ 69 µM)	16 µg/mL (≈ 34.5 µM)	32 µg/mL (≈ 69 µM)	–	–
C[C@H](Cc1c[nH]c2ccc(CNCCO)cc12)[C@H]1CC[C@H]2[C@@H]3CC[C@@H]4C[C@H](O)CC[C@]4(C)[C@H]3CC[C@]12C	–	16 µg/mL (≈ 31.6 µM)	–	–	–
C[C@H](Cc1c[nH]c2ccc(CNc3ccc(C(F)(F)F)cc3)cc12)[C@H]1CC[C@H]2[C@@H]3CC[C@@H]4C[C@H](O)CC[C@]4(C)[C@H]3CC[C@]12C	> 32 µg/mL	16 µg/mL (≈ 26.4 µM)	32 µg/mL (≈ 52.7 µM)	–	–
C[C@H](Cc1c[nH]c2ccccc12)[C@H]1CC[C@H]2[C@@H]3CC[C@@H]4C[C@H](O)CC[C@]4(C)[C@H]3CC[C@]12C	–	> 32 µg/mL	–	–	–
COc1ccc2[nH]cc([C@H]3CC[C@H]4[C@@H]5CC[C@H]6C[C@@H](O)CC[C@]6(C)[C@H]5CC[C@]34C)c2c1	–	16 µg/mL (≈ 37.9 µM)	16 µg/mL (≈ 37.9 µM)	–	–
C[C@H](Cc1c[nH]c2ccc(CN3CCSCC3)cc12)[C@H]1CC[C@H]2[C@@H]3CC[C@@H]4C[C@H](O)CC[C@]4(C)[C@H]3CC[C@]12C	16 µg/mL (≈ 29.2 µM)	8 µg/mL (≈ 14.6 µM)	16 µg/mL (≈ 29.2 µM)	16 µg/mL (≈ 29.2 µM)	–
CCCNCc1ccc2[nH]cc(C[C@@H](C)[C@H]3CC[C@H]4[C@@H]5CC[C@@H]6C[C@H](O)CC[C@]6(C)[C@H]5CC[C@]34C)c2c1	–	32 µg/mL (≈ 63.4 µM)	32 µg/mL (≈ 63.4 µM)	–	–
CCn1cc(C(=O)O)c(=O)c2cc(F)c(N3CCNCC3)cc21	–	–	–	–	Activity [9]: inactive
CC1CN(Cc2ccc3[nH]cc(C[C@@H](C)[C@H]4CC[C@H]5[C@@H]6CC[C@@H]7C[C@H](O)CC[C@]7(C)[C@H]6CC[C@]45C)c3c2)CC(C)N1 (some centres undefined)	–	32 µg/mL (≈ 57.2 µM)	–	–	–
C[C@H](Cc1c[nH]c2ccc(CN3CCNCC3)cc12)[C@H]1CC[C@H]2[C@@H]3CC[C@@H]4C[C@H](O)CC[C@]4(C)[C@H]3CC[C@]12C	16 µg/mL (≈ 30.1 µM)	8 µg/mL (≈ 15 µM)	16 µg/mL (≈ 30.1 µM)	16 µg/mL (≈ 30.1 µM)	–
CC1(C)S[C@@H]2[C@H](NC(=O)[C@H](N)c3ccccc3)C(=O)N2[C@H]1C(=O)O	–	–	–	–	Activity [9]: inactive
CCCCCCCCCC(=O)N[C@@H](Cc1c[nH]c2ccccc12)C(=O)N[C@@H](CC(N)=O)C(=O)N[C@@H](CC(=O)O)C(=O)N[C@@H]1C(=O)NCC(=O)N[C@@H](CCCN)C(=O)N[C@@H](CC(=O)O)C(=O)N[C@H](C)C(=O)N[C@@H](CC(=O)O)C(=O)NCC(=O)N[C@H](CO)C(=O)N[C@@H]([C@@H](C)CC(=O)O)C(=O)N[C@@H](CC(=O)c2ccccc2N)C(=O)O[C@@H]1C	–	–	–	–	Activity [9]: Active
COc1ccc2[nH]cc(C[C@@H](C)[C@H]3CC[C@H]4[C@@H]5[C@H](O)C[C@@H]6C[C@H](O)CC[C@]6(C)[C@H]5CC[C@]34C)c2c1	32 µg/mL (≈ 66.7 µM)	16 µg/mL (≈ 33.4 µM)	32 µg/mL (≈ 66.7 µM)	32 µg/mL (≈ 66.7 µM)	–
CNCc1ccc2[nH]cc(C[C@@H](C)[C@H]3CC[C@H]4[C@@H]5CC[C@@H]6C[C@H](O)CC[C@]6(C)[C@H]5CC[C@]34C)c2c1	2 µg/mL (≈ 4.2 µM)	2 µg/mL (≈ 4.2 µM)	2 µg/mL (≈ 4.2 µM)	2 µg/mL (≈ 4.2 µM)	MBC [5]: 2 µg/mL (≈ 4.2 µM); MBC [6]: 4 µg/mL (≈ 8.39 µM); MBC [7]: 4 µg/mL (≈ 8.39 µM); MBC [8]: 4 µg/mL (≈ 8.39 µM)
COc1ccc(NCc2ccc3[nH]cc(C[C@@H](C)[C@H]4CC[C@H]5[C@@H]6CC[C@@H]7C[C@H](O)CC[C@]7(C)[C@H]6CC[C@]45C)c3c2)cc1	–	16 µg/mL (≈ 28.1 µM)	16 µg/mL (≈ 28.1 µM)	–	–
C[C@H](Cc1c[nH]c2ccc(CN3CCN(C)CC3)cc12)[C@H]1CC[C@H]2[C@@H]3CC[C@@H]4C[C@H](O)CC[C@]4(C)[C@H]3CC[C@]12C	–	16 µg/mL (≈ 29.3 µM)	–	–	–
C[C@H](Cc1c[nH]c2ccc(CNCCN3CCN(C)CC3)cc12)[C@H]1CC[C@H]2[C@@H]3CC[C@@H]4C[C@H](O)CC[C@]4(C)[C@H]3CC[C@]12C	4 µg/mL (≈ 6.79 µM)	2 µg/mL (≈ 3.4 µM)	2 µg/mL (≈ 3.4 µM)	4 µg/mL (≈ 6.79 µM)	–
CN[C@H](CC(C)C)C(=O)N[C@H]1C(=O)N[C@@H](CC(N)=O)C(=O)N[C@H]2C(=O)N[C@H]3C(=O)N[C@H](C(=O)N[C@H](C(=O)O)c4cc(O)cc(O)c4-c4cc3ccc4O)[C@H](O)c3ccc(c(Cl)c3)Oc3cc2cc(c3O[C@@H]2O[C@H](CO)[C@@H](O)[C@H](O)[C@H]2O[C@H]2C[C@](C)(N)[C@H](O)[C@H](C)O2)Oc2ccc(cc2Cl)[C@H]1O [VANCOMYCIN]	–	–	–	–	Activity [10]: 87%; Activity [9]: inactive; Activity [11]: Active
CCNCc1ccc2[nH]cc([C@H]3CC[C@H]4[C@@H]5CC[C@H]6C[C@@H](O)CC[C@]6(C)[C@H]5CC[C@]34C)c2c1	8 µg/mL (≈ 17.8 µM)	4 µg/mL (≈ 8.91 µM)	4 µg/mL (≈ 8.91 µM)	8 µg/mL (≈ 17.8 µM)	MBC [5]: 8 µg/mL (≈ 17.8 µM); MBC [6]: 8 µg/mL (≈ 17.8 µM); MBC [7]: 16 µg/mL (≈ 35.7 µM); MBC [8]: 16 µg/mL (≈ 35.7 µM)
COc1ccc2[nH]cc([C@H]3CC[C@H]4[C@@H]5CCc6cc(O)ccc6[C@H]5CC[C@]34C)c2c1	–	16 µg/mL (≈ 39.8 µM)	32 µg/mL (≈ 79.7 µM)	–	–
C[C@H](Cc1c[nH]c2ccc(CN3CCC(O)C3)cc12)[C@H]1CC[C@H]2[C@@H]3CC[C@@H]4C[C@H](O)CC[C@]4(C)[C@H]3CC[C@]12C (some centres undefined)	–	8 µg/mL (≈ 15 µM)	16 µg/mL (≈ 30 µM)	–	–
COc1ccc2[nH]cc(C[C@@H](C)[C@H]3CC[C@H]4[C@@H]5[C@H](O)C[C@@H]6C[C@H](O)CC[C@]6(C)[C@H]5C[C@H](O)[C@]34C)c2c1	32 µg/mL (≈ 64.6 µM)	16 µg/mL (≈ 32.3 µM)	32 µg/mL (≈ 64.6 µM)	32 µg/mL (≈ 64.6 µM)	–
